The values that follow come from ChEMBL document CHEMBL3792342, “Synthesis and biological evaluation of 2-arylimino-3-pyridin-thiazolineone derivatives as antibacterial agents” (Bioorg Med Chem Lett, 2016).

In brackets after ≈: the same amount, converted by molar mass.

One data set concerns Escherichia coli. The data set is described as follows: Antibacterial activity against Escherichia coli ATCC 25922 by broth micro-dilution method.
Details: not given
The format is functional. In general terms: Dilution methods test growth across graded concentrations, often in twofold steps.
As usually defined, the MIC is the smallest concentration in the dilution series that meets the test's criterion for growth inhibition. For `CCc1ccccc1/N=C1\S/C(=C\c2ccc(OCC(=O)O)c(OC)c2)C(=O)N1c1ccccc1CC`, the MIC is above 200 µM.

`O=C(O)c1cccc(-c2ccc(/C=C3\S/C(=N\c4ccc(F)cc4)N(c4ccc(F)cc4)C3=O)s2)c1` yielded a minimum inhibitory concentration (MIC) above 200 µM.

`O=C(O)c1cccc(-c2ccc(/C=C3\S/C(=N\c4ccc(Cl)cc4)N(c4ccc(Cl)cc4)C3=O)s2)c1` had an MIC above 200 µM.

For the compound `O=C(O)c1cccc(-c2ccc(/C=C3\S/C(=N\c4ccc(Cl)cc4)N(c4ncccc4F)C3=O)o2)c1`, the minimum inhibitory concentration (MIC) is above 200 µM.

`O=C(O)c1cccc(-c2ccc(/C=C3\S/C(=N\c4ccc(Cl)cc4)N(c4ccccn4)C3=O)o2)c1` yielded an MIC above 200 µM.

Take `O=C(O)c1cccc(-c2ccc(/C=C3\S/C(=N\c4ccc(F)cc4)N(c4ccccn4)C3=O)o2)c1`: the MIC is above 200 µM.

In turn, `O=C(O)c1cccc(-c2ccc(/C=C3\S/C(=N\c4ccccc4)N(c4ccc(Cl)cc4)C3=O)o2)c1` returned an MIC above 200 µM.

As for `O=C(O)c1cccc(-c2ccc(/C=C3\S/C(=N\c4ccccc4)N(c4cccc(F)n4)C3=O)o2)c1`, the MIC was above 200 µM.

`O=C(O)c1cccc(-c2ccc(/C=C3\S/C(=N\c4ccccc4)N(c4ccc(F)cn4)C3=O)o2)c1` came in with a minimal inhibitory concentration (MIC) above 200 µM.

In turn, `O=C(O)c1cccc(-c2ccc(/C=C3\S/C(=N\c4ccccc4)N(c4ccc(F)cc4)C3=O)s2)c1` yielded an MIC above 200 µM.

As for `O=C(O)c1cccc(-c2ccc(/C=C3\S/C(=N\c4ccccc4)N(c4ccc(F)cn4)C3=O)s2)c1`, the MIC was above 200 µM.

Another data set concerns Staphylococcus epidermidis. Description: Bactericidal activity against Staphylococcus epidermidis ATCC 35984. The format is functional. The note with it: RP62A.
What is called MBC is the lowest tested concentration that kills the bacteria rather than only halting them. `CCc1ccccc1/N=C1\S/C(=C\c2ccc(OCC(=O)O)c(OC)c2)C(=O)N1c1ccccc1CC` yielded an MBC of 100 µM (≈ 51.7 µg/mL).

`O=C(O)c1cccc(-c2ccc(/C=C3\S/C(=N\c4ccc(F)cc4)N(c4ccc(F)cc4)C3=O)s2)c1`: the MBC came out at 100 µM (≈ 51.9 µg/mL).

Consider `O=C(O)c1cccc(-c2ccc(/C=C3\S/C(=N\c4ccc(Cl)cc4)N(c4ccc(Cl)cc4)C3=O)s2)c1`, for which the MBC was above 200 µM.

Compound `O=C(O)c1cccc(-c2ccc(/C=C3\S/C(=N\c4ccc(Cl)cc4)N(c4ncccc4F)C3=O)o2)c1` displayed a minimal bactericidal concentration (MBC) above 200 µM.

`O=C(O)c1cccc(-c2ccc(/C=C3\S/C(=N\c4ccc(Cl)cc4)N(c4ccccn4)C3=O)o2)c1` yielded an MBC of 50 µM (≈ 25.1 µg/mL).

For `O=C(O)c1cccc(-c2ccc(/C=C3\S/C(=N\c4ccc(F)cc4)N(c4ccccn4)C3=O)o2)c1`, the MBC was above 200 µM.

In the case of `O=C(O)c1cccc(-c2ccc(/C=C3\S/C(=N\c4ccccc4)N(c4ccc(Cl)cc4)C3=O)o2)c1`, the MBC was 50 µM (≈ 25 µg/mL).

Regarding `O=C(O)c1cccc(-c2ccc(/C=C3\S/C(=N\c4ccccc4)N(c4cccc(F)n4)C3=O)o2)c1`, the MBC is 100 µM (≈ 48.5 µg/mL).

`O=C(O)c1cccc(-c2ccc(/C=C3\S/C(=N\c4ccccc4)N(c4ccc(F)cn4)C3=O)o2)c1`: the MBC was above 200 µM.

`O=C(O)c1cccc(-c2ccc(/C=C3\S/C(=N\c4ccccc4)N(c4ccc(F)cc4)C3=O)s2)c1` came in with an MBC of 25 µM (≈ 12.5 µg/mL).

As to `O=C(O)c1cccc(-c2ccc(/C=C3\S/C(=N\c4ccccc4)N(c4ccc(F)cn4)C3=O)s2)c1`, the MBC worked out at 50 µM (≈ 25.1 µg/mL).

For another data set, the system named is Staphylococcus epidermidis. Description: Antibacterial activity against Staphylococcus epidermidis ATCC 35984 by broth micro-dilution method. It is filed as functional. The note with it: RP62A.
`CCc1ccccc1/N=C1\S/C(=C\c2ccc(OCC(=O)O)c(OC)c2)C(=O)N1c1ccccc1CC` gave an MIC of 25 µM (≈ 12.9 µg/mL).

Consider `O=C(O)c1cccc(-c2ccc(/C=C3\S/C(=N\c4ccc(F)cc4)N(c4ccc(F)cc4)C3=O)s2)c1`, for which the MIC turned out to be 6.25 µM (≈ 3.24 µg/mL).

The compound `O=C(O)c1cccc(-c2ccc(/C=C3\S/C(=N\c4ccc(Cl)cc4)N(c4ccc(Cl)cc4)C3=O)s2)c1` had an MIC of 12.5 µM (≈ 6.89 µg/mL).

In turn, `O=C(O)c1cccc(-c2ccc(/C=C3\S/C(=N\c4ccc(Cl)cc4)N(c4ncccc4F)C3=O)o2)c1` showed a minimal inhibitory concentration (MIC) of 12.5 µM (≈ 6.5 µg/mL).

With `O=C(O)c1cccc(-c2ccc(/C=C3\S/C(=N\c4ccc(Cl)cc4)N(c4ccccn4)C3=O)o2)c1`, the MIC amounted to 6.25 µM (≈ 3.14 µg/mL).

As for `O=C(O)c1cccc(-c2ccc(/C=C3\S/C(=N\c4ccc(F)cc4)N(c4ccccn4)C3=O)o2)c1`, 12.5 µM (≈ 6.07 µg/mL) was the least that counted as inhibitory (MIC).

On to `O=C(O)c1cccc(-c2ccc(/C=C3\S/C(=N\c4ccccc4)N(c4ccc(Cl)cc4)C3=O)o2)c1`, for which 6.25 µM (≈ 3.13 µg/mL) was the least that counted as inhibitory (MIC).

In turn, `O=C(O)c1cccc(-c2ccc(/C=C3\S/C(=N\c4ccccc4)N(c4cccc(F)n4)C3=O)o2)c1` showed a minimal inhibitory concentration (MIC) of 6.25 µM (≈ 3.03 µg/mL).

In turn, `O=C(O)c1cccc(-c2ccc(/C=C3\S/C(=N\c4ccccc4)N(c4ccc(F)cn4)C3=O)o2)c1` displayed an MIC of 12.5 µM (≈ 6.07 µg/mL).

As for `O=C(O)c1cccc(-c2ccc(/C=C3\S/C(=N\c4ccccc4)N(c4ccc(F)cc4)C3=O)s2)c1`, the lowest concentration to inhibit growth (MIC) was 6.25 µM (≈ 3.13 µg/mL).

On to `O=C(O)c1cccc(-c2ccc(/C=C3\S/C(=N\c4ccccc4)N(c4ccc(F)cn4)C3=O)s2)c1`, for which the MIC was 3.13 µM (≈ 1.57 µg/mL).

The test system of another data set is Staphylococcus aureus. Description: Antibacterial activity against methicillin-resistant Staphylococcus aureus 8282 by broth micro-dilution method. It is filed as functional.
Details: not given
`CCc1ccccc1/N=C1\S/C(=C\c2ccc(OCC(=O)O)c(OC)c2)C(=O)N1c1ccccc1CC` yielded an MIC of 25 µM (≈ 12.9 µg/mL).

Compound `O=C(O)c1cccc(-c2ccc(/C=C3\S/C(=N\c4ccc(F)cc4)N(c4ccc(F)cc4)C3=O)s2)c1` yielded an MIC of 6.25 µM (≈ 3.24 µg/mL).

Regarding `O=C(O)c1cccc(-c2ccc(/C=C3\S/C(=N\c4ccc(Cl)cc4)N(c4ccc(Cl)cc4)C3=O)s2)c1`, the MIC turned out to be 25 µM (≈ 13.8 µg/mL).

Take `O=C(O)c1cccc(-c2ccc(/C=C3\S/C(=N\c4ccc(Cl)cc4)N(c4ncccc4F)C3=O)o2)c1`: it took 12.5 µM (≈ 6.5 µg/mL) to inhibit growth (MIC).

Regarding `O=C(O)c1cccc(-c2ccc(/C=C3\S/C(=N\c4ccc(Cl)cc4)N(c4ccccn4)C3=O)o2)c1`, 6.25 µM (≈ 3.14 µg/mL) was the least that counted as inhibitory (MIC).

With `O=C(O)c1cccc(-c2ccc(/C=C3\S/C(=N\c4ccc(F)cc4)N(c4ccccn4)C3=O)o2)c1`, inhibition of growth (MIC) required 12.5 µM (≈ 6.07 µg/mL).

Turning to `O=C(O)c1cccc(-c2ccc(/C=C3\S/C(=N\c4ccccc4)N(c4ccc(Cl)cc4)C3=O)o2)c1`, the lowest concentration to inhibit growth (MIC) was 6.25 µM (≈ 3.13 µg/mL).

`O=C(O)c1cccc(-c2ccc(/C=C3\S/C(=N\c4ccccc4)N(c4cccc(F)n4)C3=O)o2)c1` displayed an MIC of 6.25 µM (≈ 3.03 µg/mL).

As to `O=C(O)c1cccc(-c2ccc(/C=C3\S/C(=N\c4ccccc4)N(c4ccc(F)cn4)C3=O)o2)c1`, the MIC is 12.5 µM (≈ 6.07 µg/mL).

`O=C(O)c1cccc(-c2ccc(/C=C3\S/C(=N\c4ccccc4)N(c4ccc(F)cc4)C3=O)s2)c1`: the MIC was determined as 12.5 µM (≈ 6.26 µg/mL).

Regarding `O=C(O)c1cccc(-c2ccc(/C=C3\S/C(=N\c4ccccc4)N(c4ccc(F)cn4)C3=O)s2)c1`, the minimal inhibitory concentration (MIC) is 3.13 µM (≈ 1.57 µg/mL).

Test system in the next data set: not listed separately
Description: Hemolytic activity in human erythrocytes at 200 uM. It is filed as ADME, cell-based. The note with it: erythrocyte.
Turning to `CCc1ccccc1/N=C1\S/C(=C\c2ccc(OCC(=O)O)c(OC)c2)C(=O)N1c1ccccc1CC`, the Activity entry is reported as “Non-toxic”.

`O=C(O)c1cccc(-c2ccc(/C=C3\S/C(=N\c4ccc(F)cc4)N(c4ccc(F)cc4)C3=O)s2)c1`: the Activity result is “Non-toxic”.

Turning to `O=C(O)c1cccc(-c2ccc(/C=C3\S/C(=N\c4ccc(Cl)cc4)N(c4ccc(Cl)cc4)C3=O)s2)c1`, the Activity result is recorded as “Non-toxic”.

With `O=C(O)c1cccc(-c2ccc(/C=C3\S/C(=N\c4ccc(Cl)cc4)N(c4ncccc4F)C3=O)o2)c1`, the Activity entry is recorded as “Non-toxic”.

For the compound `O=C(O)c1cccc(-c2ccc(/C=C3\S/C(=N\c4ccc(Cl)cc4)N(c4ccccn4)C3=O)o2)c1`, the Activity entry is “Non-toxic”.

As for `O=C(O)c1cccc(-c2ccc(/C=C3\S/C(=N\c4ccc(F)cc4)N(c4ccccn4)C3=O)o2)c1`, the Activity result was “Non-toxic”.

As to `O=C(O)c1cccc(-c2ccc(/C=C3\S/C(=N\c4ccccc4)N(c4ccc(Cl)cc4)C3=O)o2)c1`, the Activity result is on record as “Non-toxic”.

On to `O=C(O)c1cccc(-c2ccc(/C=C3\S/C(=N\c4ccccc4)N(c4cccc(F)n4)C3=O)o2)c1`, for which the Activity entry is given as “Non-toxic”.

As for `O=C(O)c1cccc(-c2ccc(/C=C3\S/C(=N\c4ccccc4)N(c4ccc(F)cn4)C3=O)o2)c1`, the Activity entry is listed as “Non-toxic”.

As for `O=C(O)c1cccc(-c2ccc(/C=C3\S/C(=N\c4ccccc4)N(c4ccc(F)cc4)C3=O)s2)c1`, the Activity result was “Non-toxic”.

As for `O=C(O)c1cccc(-c2ccc(/C=C3\S/C(=N\c4ccccc4)N(c4ccc(F)cn4)C3=O)s2)c1`, the Activity result is listed as “Non-toxic”.

Test system in the next data set: not listed separately
The data set is described as follows: Cytotoxicity against African green monkey Vero cells. It is filed as cell-based. The note with it: chlorocebus sabaeus.
Usually CC50 stands for the concentration giving 50% cytotoxicity. Compound `CCc1ccccc1/N=C1\S/C(=C\c2ccc(OCC(=O)O)c(OC)c2)C(=O)N1c1ccccc1CC` showed a CC50 of 50 µM.

For the compound `O=C(O)c1cccc(-c2ccc(/C=C3\S/C(=N\c4ccc(F)cc4)N(c4ccc(F)cc4)C3=O)s2)c1`, the CC50 was above 200 µM.

In turn, `O=C(O)c1cccc(-c2ccc(/C=C3\S/C(=N\c4ccc(Cl)cc4)N(c4ccc(Cl)cc4)C3=O)s2)c1` registered a CC50 above 200 µM.

In turn, `O=C(O)c1cccc(-c2ccc(/C=C3\S/C(=N\c4ccc(Cl)cc4)N(c4ncccc4F)C3=O)o2)c1` came in with a CC50 above 200 µM.

For `O=C(O)c1cccc(-c2ccc(/C=C3\S/C(=N\c4ccc(Cl)cc4)N(c4ccccn4)C3=O)o2)c1`, the CC50 is above 200 µM.

As for `O=C(O)c1cccc(-c2ccc(/C=C3\S/C(=N\c4ccc(F)cc4)N(c4ccccn4)C3=O)o2)c1`, the CC50 was above 200 µM.

With `O=C(O)c1cccc(-c2ccc(/C=C3\S/C(=N\c4ccccc4)N(c4ccc(Cl)cc4)C3=O)o2)c1`, the CC50 is above 200 µM.

`O=C(O)c1cccc(-c2ccc(/C=C3\S/C(=N\c4ccccc4)N(c4cccc(F)n4)C3=O)o2)c1`: the CC50 was above 200 µM.

The compound `O=C(O)c1cccc(-c2ccc(/C=C3\S/C(=N\c4ccccc4)N(c4ccc(F)cn4)C3=O)o2)c1` came in with a CC50 above 200 µM.

On to `O=C(O)c1cccc(-c2ccc(/C=C3\S/C(=N\c4ccccc4)N(c4ccc(F)cc4)C3=O)s2)c1`, for which the CC50 was above 200 µM.

The compound `O=C(O)c1cccc(-c2ccc(/C=C3\S/C(=N\c4ccccc4)N(c4ccc(F)cn4)C3=O)s2)c1` registered a CC50 above 200 µM.
